Laboratory results reported in patent publication US8575135B2 (Gilead Sciences, Inc., priority 2011, dated 2013).
Like-named read-outs stand apart in the source and are kept apart here.

Legend:
Assay in all cases: microbe, parasite or virus in culture
Details in all cases: Hepatitis C virus
[1] = tested on: NS5A chimeric genotype 2a JFH-1 replicon with genotype 2b MD2b-1 strain NS5A gene (M31 present); assay type: cell-based, HCV
Procedure: (§1) Evaluation of Cell-Based Anti-HCV Activity:
(§2) Antiviral potency (EC50) was determined using a Renilla luciferase (RLuc)-based HCV replicon reporter assay. […] To perform the assay for genotype 2a (with M31 present in NS5A) or 2b, NS5A chimeric genotype 2a JFH-1 replicons that encodes a RLuc-Neo reporter and either genotype 2a J6 strain NS5A gene or genotype 2b MD2b-1 strain NS5A gene (both with M31 present) respectively, were either transiently transfected (t) into Huh-Lunet cells or were established as stably replicating replicon cells (s) is provided. Either cells were dispensed into 384-well plates for EC50 assays. To perform the assay for genotype 3 and 4, NS5A chimeric genotype 1b Con1 replicons that encodes a Pi-RLuc reporter and either genotype 3a S52 strain NS5A gene or genotype 4a ED43 strain NS5A gene respectively, were transiently transfected (t) into Huh-Lunet cells, which were subsequently dispensed into 384-well plates. Compounds were dissolved in DMSO at a concentration of 10 mM and diluted in DMSO either manually or using an automated pipeting instrument. Serially 3-fold diluted compounds were either manually mixed with cell culture media and added to the seeded cells or directly added to the cells using an automated instrument. […] 72 hours later, cells were lysed and Renilla luciferase activity quantified as recommended by the manufacturer (Promega-Madison, Wis.). Non-linear regression was performed to calculate EC50 values.

[2] = tested on: NS5A chimeric genotype 2a JFH-1 replicon with genotype 2a J6 strain NS5A gene (M31 present); assay type: cell-based, HCV
Procedure: as §1, §2

[3] = tested on: NS5A chimeric genotype 1b Con1 replicon with genotype 3a S52 strain NS5A gene; assay type: cell-based, HCV
Procedure: as §1, §2

[4] = tested on: NS5A chimeric genotype 1b Con1 replicon with genotype 4a ED43 strain NS5A gene; assay type: cell-based, HCV
[5] = tested on: stable HCV 2a JFH-1 Rluc replicon cells (L31 present in NS5A); assay type: cell-based
[6] = tested on: stable HCV 1a RLuc replicon cells (genotype 1a H77 replicon); assay type: cell-based
Procedure: as §1, §2

[7] = tested on: 1a Pi-Rluc replicon with Q30R in genotype 1a NS5A; assay type: cell-based, HCV
Procedure: as §2
To determine the antiviral potency (EC50) against resistance mutants, resistance mutations, including M28T, Q30R, Q30H, L31M, and Y93C in genotype 1a NS5A and Y93H in genotype 1b NS5A, were introduced individually into either 1a Pi-Rluc or 1b Pi-Rluc replicons by site directed mutagenesis. Replicon RNA of each resistant mutant was transiently transfected into Huh-7-derived cured-51 cells and antiviral potency was determined on these transfected cells as described above.

| SMILES | EC50 ([1]; read-out: 2b) [nM] | EC50 ([1]; read-out: 2b (s) (nM)) [nM] | EC50 ([2]; read-out: 2a J6) [nM] | EC50 ([2]; read-out: 2a J6 (s) (nM)) [nM] | EC50 ([3]; read-out: 3a) [nM] | EC50 ([3]; read-out: 3a (nM)) [nM] | EC50 ([4]; read-out: 4a) [nM] | EC50 ([4]; read-out: 4a (s) (nM)) [nM] | EC50 ([4]; read-out: 4a (t) (nM)) [nM] | EC50 ([5]; read-out: 2a JFH) [nM] | EC50 ([5]; read-out: 2a JFH (nM)) [nM] | EC50 ([6]; read-out: 1a) [nM] | EC50 ([6]; read-out: 1a (nM)) [nM] | EC50 ([1]; read-out: 2b (t) (nM)) [nM] | EC50 ([2]; read-out: 2a Jb (t) (nM)) [nM] | EC50 ([7]; read-out: 1a Q30R) [nM] | EC50 ([7]; read-out: 1a Q30R (nM)) [nM] |
| --- | --- | --- | --- | --- | --- | --- | --- | --- | --- | --- | --- | --- | --- | --- | --- | --- | --- |
| COC[C@H]1C[C@@H](c2nc3ccc4cc5c(cc4c3[nH]2)OCc2cc(-c3ccc4nc([C@@H]6CCCN6C(=O)[C@@H](NC(=O)OC)C(C)C)[nH]c4c3)ccc2-5)N(C(=O)[C@@H](NC(=O)OC)C(C)C)C1 | > 5 | 44.4 | > 5 | 44.4 | 1 to 4.99 | 1.09 | < 1 | 0.025 | 0.015 | < 1 | 0.021 | < 1 | 0.003 |  |  |  |  |
| COC[C@@H]1C[C@@H](c2nc3c([nH]2)-c2cc4c(cc2CC3)-c2ccc(-c3cnc([C@@H]5CCCN5C(=O)[C@@H](NC(=O)OC)C(C)C)[nH]3)cc2CO4)N(C(=O)[C@@H](NC(=O)OC)C(C)C)C1 [Compound 493] | < 1 | 0.65 | > 5 | 5.04 | < 1 | 0.05 | < 1 | 0.018 | 0.013 | < 1 | 0.008 | < 1 | 0.036 |  |  |  |  |
| CCC(=O)N[C@@H](C(=O)N1CCC[C@H]1c1ncc(-c2ccc3c(c2)COc2cc4c(ccc5nc([C@@H]6CCCN6C(=O)[C@@H](NC(=O)OC)C(C)C)[nH]c54)cc2-3)[nH]1)c1ccccc1 [Compound 499] | < 1 | 0.04 | < 1 | 0.206 | < 1 | 0.01 | < 1 | 0.005 | 0.021 | < 1 | 0.008 | < 1 | 0.057 |  |  |  |  |
| COC(=O)N[C@H](C(=O)N1CCC[C@H]1c1ncc(-c2ccc3c(c2)COc2cc4c(cc2-3)CCc2nc([C@@H]3CCCN3C(=O)[C@H](NC(=O)C3CC3)c3ccccc3)[nH]c2-4)[nH]1)C(C)C [Compound 503] | < 1 | 0.037 | < 1 | 0.155 | < 1 | 0.016 | < 1 | 0.025 | 0.028 | < 1 | 0.012 | < 1 | 0.062 |  |  |  |  |
| COC[C@H]1C[C@@H](c2nc3ccc4cc5c(cc4c3[nH]2)OCc2cc(-c3cnc([C@@H]4CCCN4C(=O)[C@H](NC(=O)C4CC4)c4ccccc4)[nH]3)ccc2-5)N(C(=O)[C@@H](NC(=O)OC)C(C)C)C1 [Compound 510] | < 1 | 0.02 | < 1 | 0.018 | < 1 | 0.008 | < 1 | 0.072 | 0.016 | < 1 | 0.009 | < 1 | 0.021 | 0.017 | 0.007 |  |  |
| COC(=O)N[C@H](C(=O)N1CCC[C@H]1c1ncc(-c2ccc3c(c2)COc2cc4c(ccc5nc([C@@H]6C[C@H]7C[C@H]7N6C(=O)[C@@H](NC(=O)OC)C(C)C)[nH]c54)cc2-3)[nH]1)C(C)C [Compound 518] | < 1 | 0.643 | 1 to 4.99 | 2.49 | < 1 | 0.005 | < 1 | 0.011 | 0.004 | < 1 | 0.006 | < 1 | 0.005 |  |  |  |  |
| COC[C@H]1C[C@@H](c2ncc(-c3ccc4c(c3)COc3cc5c(ccc6nc([C@@H]7CCCN7C(=O)[C@H](NC(=O)OC)c7ccccc7)[nH]c65)cc3-4)[nH]2)N(C(=O)[C@@H](NC(=O)OC)[C@@H](C)OC)C1 [Compound 626] | < 1 |  | < 1 |  | < 1 | 0.027 |  |  |  | < 1 | 0.009 | < 1 | 0.021 | 0.021 | 0.021 | < 1 | 0.041 |
| COC(=O)N[C@H](C(=O)N1[C@@H](C)CC[C@H]1c1ncc(-c2ccc3c(c2)COc2cc4c(ccc5nc([C@@H]6CCCN6C(=O)[C@H](NC(=O)OC)c6ccccc6)[nH]c54)cc2-3)[nH]1)C(C)C [Example NQ, Methyl {(2S)-1-[(2S,5S)-2-(5-{2-[(2S)-1-{(2R)-2-[(methoxycarbonyl)amino]-2-phenylacetyl}pyrrolidin-2-yl]-1,11-dihydroisochromeno[4′,3′:6,7]naphtho[1,2-d]imidazol-9-yl}-1H-imidazol-2-yl)-5-methylpyrrolidin-1-yl]-3-methyl-1-oxobutan-2-yl}carbamate] | < 1 | 0.012 | < 1 |  | < 1 | 0.013 |  |  |  | < 1 | 0.006 | < 1 | 0.017 | 0.013 | 0.064 | < 1 | 0.039 |
| CC[C@H](C)[C@H](NC(=O)OC)C(=O)N1C[C@@H](COC)C[C@H]1c1ncc(-c2ccc3c(c2)COc2cc4c(ccc5nc([C@@H]6C[C@H](COC)CN6C(=O)[C@@H](NC(=O)OC)[C@@H](C)CC)[nH]c54)cc2-3)[nH]1 [Example OJ] | < 1 | 0.813 | < 1 | 0.502 | < 1 | 0.259 | < 1 | 0.017 | 0.026 | < 1 | 0.013 | < 1 | 0.018 |  |  |  |  |
| CC[C@H](C)[C@H](NC(=O)OC)C(=O)N1C[C@@H](COC)C[C@H]1c1nc2ccc3cc4c(cc3c2[nH]1)OCc1cc(-c2cnc([C@@H]3CC[C@H](C)N3C(=O)[C@@H](NC(=O)OC)C(C)C)[nH]2)ccc1-4 [Example ON, methyl {(2S)-1-[(2S,4S)-2-(5-{2-[(2S,5S)-1-{(2S,3S)-2-[(methoxycarbonyl)amino]-3-methylpentanoyl}-4-(methoxymethyl)-2-yl]-1,11-dihydroisochromeno[4′,3′:6,7]naphtho[1,2-d]imidazol-9-yl}-1H-imidazol-2-yl)-5-methylpyrrolidin-1-yl]-3-methyl-1-oxobutan-2-yl}carbamate] |  |  | < 1 |  |  |  |  |  |  | < 1 | 0.004 | < 1 | 0.005 | 0.086 | 0.068 | < 1 |  |
| COC(=O)N[C@H](C(=O)N1CCCC1c1ncc(-c2ccc3c(c2)COc2cc4c(ccc5nc([C@@H]6C[C@@H]7CCC[C@@H]7N6C(=O)[C@@H](NC(=O)OC)C(C)C)[nH]c54)cc2-3)[nH]1)C(C)C (stereo partly drawn) [Example PO, methyl {(2S)-1-[2-(5-{2-[(2S,3aS,6aS)-1-{(2S)-2-[(methoxycarbonyl)amino]-3-methylbutanoyl}octahydrocyclopenta[b]pyrrol-2-yl]-1,11-dihydroisochromeno[4′,3′:6,7]naphtho[1,2-d]imidazol-9-yl}-1H-imidazol-2-yl)pyrrolidin-1-yl]-3-methyl-1-oxobutan-2-yl}carbamate] | < 1 | 0.47 | 1 to 4.99 | 3.13 | < 1 | 0.012 | < 1 | 0.013 | 0.013 | < 1 | 0.011 | < 1 | 0.013 |  |  |  |  |
